Experimental data reported in patent publication US20240287138A1, “CYCLIC PEPTIDES FOR INHIBITING TNF RECEPTOR 1 ACTIVITY” (Merck Sharp & Dohme LLC, priority 2023, published 2024).
Numbered stars: 1 amine (or outer) side, 2 acyl side, 3 side chain; on linkers, the order of the positions; unused ones are H or OH. Square brackets hold non-standard residues; d marks the D form. Peptide text beside a SMILES is read from it. Trp(βS-Me,7-OMe) = COc1cccc2c([C@H](C)[C@H](N)C(=O)O)c[nH]c12; dPro(trans-4-NMe2) = CN(C)[C@@H]1CN[C@@H](C(=O)O)C1; Trp(7-CN) = N#Cc1cccc2c(C[C@H](N)C(=O)O)c[nH]c12; Phe(3-CONH2) = NC(=O)c1cccc(C[C@H](N)C(=O)O)c1; Phe(4-CONH2) = NC(=O)c1ccc(C[C@H](N)C(=O)O)cc1; Phe(4-COOH) = N[C@@H](Cc1ccc(C(=O)O)cc1)C(=O)O; 4Pal(3S-Me) = C[C@@H](c1ccncc1)[C@H](N)C(=O)O; Trp(7-aza) = N[C@@H](Cc1c[nH]c2ncccc12)C(=O)O; dPro(trans-4-F) = O=C(O)[C@H]1C[C@H](F)CN1; Pip(5R-OH) = O=C(O)[C@@H]1CC[C@@H](O)CN1; X1 = O=C([C@@H]1CC[C@H](N[*:1])C1)[*:2]; X31 = O=C(CN(CCc1nnco1)[*:1])[*:2]; 4Pal = N[C@@H](Cc1ccncc1)C(=O)O; dHyp = O=C(O)[C@H]1C[C@H](O)CN1; Cit = NC(=O)NCCC[C@H](N)C(=O)O; aThr = C[C@H](O)[C@H](N)C(=O)O; Ahp(2) = CCCCC[C@H](N)C(=O)O; αMeS = C[C@](N)(CO)C(=O)O; Nle = CCCC[C@H](N)C(=O)O; Sar = CNCC(=O)O

What was measured:
[1] = molecular target: T1, human soluble TNFR1 (sTNFR1) (Homo sapiens, UniProt P19438); test: Human sTNFR1-peptide displacement assay (LanthaScreen Eu TR-FRET binding assay)
T1 construct: made in house; host or cells: Sf21 (baculovirus)
T1 sequence (P19438 with tags, fused parts or gaps): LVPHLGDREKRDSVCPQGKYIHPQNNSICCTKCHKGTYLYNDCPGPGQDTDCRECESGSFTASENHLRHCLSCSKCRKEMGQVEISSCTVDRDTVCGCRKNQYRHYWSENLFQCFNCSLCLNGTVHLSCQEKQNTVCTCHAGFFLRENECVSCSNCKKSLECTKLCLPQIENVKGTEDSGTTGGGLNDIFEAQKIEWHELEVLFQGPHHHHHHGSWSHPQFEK
Outline: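 Readout is the 665/615 nm TR-FRET ratio (Eu anti-His donor, streptavidin-Alexa647 acceptor), normalized to DMSO and saturating displacer, fit by Morrison-based five-parameter logistic for Kd^app. His-tagged sTNFR1 (1-211) prebound to 100 nM biotinylated peptide SEQ ID NO.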

[2] = molecular target: T2, human TNFR1 extracellular domain (ECD) protein (Homo sapiens, UniProt P19438); test: SPR binding affinity to captured human TNFR1 ECD
T2 construct: HRV 3C protease cleavage site (C); 6His (C, cleaved yes); made in house; host or cells: Sf21 insect cells (baculovirus), secreted
T2 sequence (P19438 30-211): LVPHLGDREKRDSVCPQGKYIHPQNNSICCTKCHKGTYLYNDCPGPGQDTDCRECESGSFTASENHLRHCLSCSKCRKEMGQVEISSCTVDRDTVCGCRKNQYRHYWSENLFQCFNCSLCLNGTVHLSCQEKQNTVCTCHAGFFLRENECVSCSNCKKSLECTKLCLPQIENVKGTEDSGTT
Outline: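 Insect-cell human receptor ECDs, enzymatically biotinylated, immobilized via streptavidin capture chip. Peptide binding and dissociation measured in RU in pH 7.4 HEPES buffer containing 2% DMSO; chip regenerated per analyte. Rate constants give affinity.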

SMILES | Kd [1] [nM] | Kd [2] [nM]
CCCCC[C@@H]1NC(=O)[C@@H]2CC[C@@H](C2)NC(=O)[C@H]([C@@H](C)c2c[nH]c3c(OC)cccc23)NC(=O)CN(C)C(=O)[C@H](Cc2ccc(C(N)=O)cc2)NC(=O)[C@H](Cc2ccc(C(N)=O)cc2)NC(=O)[C@](C)(CO)NC(=O)[C@H](Cc2c[nH]c3c(C#N)cccc23)NC(=O)[C@H](Cc2ccc(C(=O)O)cc2)NC(=O)[C@H](CC(N)=O)NC(=O)[C@H]2C[C@H](O)CN2C(=O)[C@H](Cc2c[nH]c3ccccc23)NC(=O)[C@H](CCCNC(N)=O)NC(=O)[C@H]([C@@H](C)c2ccncc2)NC1=O [SEQ ID NO. 110] (cyclo([Ahp(2)][4Pal(3S-Me)][Cit]W[dHyp]N[Phe(4-COOH)][Trp(7-CN)][αMeS][Phe(4-CONH2)][Phe(4-CONH2)][Sar][Trp(βS-Me,7-OMe)][X1])) | 0.14 | 0.14
CCCC[C@@H]1NC(=O)[C@@H]2CC[C@@H](C2)NC(=O)[C@H]([C@@H](C)c2c[nH]c3c(OC)cccc23)NC(=O)CN(C)C(=O)[C@H](Cc2ccc(C(N)=O)cc2)NC(=O)[C@H](Cc2ccc(C(N)=O)cc2)NC(=O)[C@](C)(CO)NC(=O)[C@H](Cc2c[nH]c3c(C#N)cccc23)NC(=O)[C@H](Cc2ccc(C(=O)O)cc2)NC(=O)[C@H](CC(N)=O)NC(=O)[C@H]2C[C@H](F)CN2C(=O)[C@H](Cc2c[nH]c3ccccc23)NC(=O)[C@@H]2CC[C@@H](O)CN2C(=O)[C@H](Cc2ccncc2)NC1=O [SEQ ID NO. 114] (cyclo([4Pal][Pip(5R-OH)]W[dPro(trans-4-F)]N[Phe(4-COOH)][Trp(7-CN)][αMeS][Phe(4-CONH2)][Phe(4-CONH2)][Sar][Trp(βS-Me,7-OMe)][X1][Nle])) | 0.02 | 0.02
CCCC[C@@H]1NC(=O)[C@@H]2CC[C@@H](C2)NC(=O)[C@H]([C@@H](C)c2c[nH]c3c(OC)cccc23)NC(=O)CN(C)C(=O)[C@H](Cc2ccc(C(=O)O)cc2)NC(=O)[C@H](Cc2ccc(C(N)=O)cc2)NC(=O)[C@](C)(CO)NC(=O)[C@H](Cc2c[nH]c3c(C#N)cccc23)NC(=O)[C@H](Cc2ccncc2)NC(=O)[C@H](CC(N)=O)NC(=O)CN(CCc2nnco2)C(=O)[C@H](Cc2c[nH]c3ncccc23)NC(=O)[C@@H]2CC[C@@H](O)CN2C(=O)[C@H](Cc2ccncc2)NC1=O [SEQ ID NO. 121] (cyclo([4Pal][Trp(7-CN)][αMeS][Phe(4-CONH2)][Phe(4-COOH)][Sar][Trp(βS-Me,7-OMe)][X1][Nle][4Pal][Pip(5R-OH)][Trp(7-aza)][X31]N)) | 0.07 | 0.02
CCCC[C@@H]1NC(=O)[C@@H]2CC[C@@H](C2)NC(=O)[C@H]([C@@H](C)c2c[nH]c3c(OC)cccc23)NC(=O)CN(C)C(=O)[C@H](Cc2ccc(C(N)=O)cc2)NC(=O)[C@H](Cc2ccc(C(N)=O)cc2)NC(=O)[C@](C)(CO)NC(=O)[C@H](Cc2c[nH]c3c(C#N)cccc23)NC(=O)[C@H](Cc2ccc(C(=O)O)cc2)NC(=O)[C@H]([C@H](C)O)NC(=O)[C@H]2C[C@H](O)CN2C(=O)[C@H](Cc2c[nH]c3ncccc23)NC(=O)[C@@H]2CC[C@@H](O)CN2C(=O)[C@H](Cc2ccncc2)NC1=O [SEQ ID NO. 122] (cyclo([4Pal][Pip(5R-OH)][Trp(7-aza)][dHyp][aThr][Phe(4-COOH)][Trp(7-CN)][αMeS][Phe(4-CONH2)][Phe(4-CONH2)][Sar][Trp(βS-Me,7-OMe)][X1][Nle])) | 0.08 | 0.04
CCCCC[C@@H]1NC(=O)[C@@H]2CC[C@@H](C2)NC(=O)[C@H]([C@@H](C)c2c[nH]c3c(OC)cccc23)NC(=O)CN(C)C(=O)[C@H](Cc2cccc(C(N)=O)c2)NC(=O)[C@H](Cc2ccc(C(N)=O)cc2)NC(=O)[C@](C)(CO)NC(=O)[C@H](Cc2c[nH]c3c(C#N)cccc23)NC(=O)[C@H](Cc2ccc(C(=O)O)cc2)NC(=O)[C@H](CC(N)=O)NC(=O)[C@H]2C[C@H](N(C)C)CN2C(=O)[C@H](Cc2c[nH]c3ccccc23)NC(=O)[C@@H]2CC[C@@H](O)CN2C(=O)[C@H](Cc2ccncc2)NC1=O [SEQ ID NO. 128] (cyclo([4Pal][Pip(5R-OH)]W[dPro(trans-4-NMe2)]N[Phe(4-COOH)][Trp(7-CN)][αMeS][Phe(4-CONH2)][Phe(3-CONH2)][Sar][Trp(βS-Me,7-OMe)][X1][Ahp(2)])) | 0.09 | 0.02
